Eight compounds from ChEMBL document CHEMBL5244213, “Current advances in drug discovery for Chagas disease” (Eur J Med Chem, 2018) can be followed below.

A short description of data set [1]: Selectivity index, ratio of IC50 for cytotoxicity against monkey LLC-MK2 cells to IC50 for antitrypanosomal activity against Trypanosoma cruzi Y intracellular amastigote transfected in monkey LLC-MK2 cells. It is filed as toxicity, cell-based. The conditions noted are these: read-out: Ratio IC50.
Data set [2] relates to Trypanosoma cruzi. The data set is described as follows: Antitrypanosomal activity against Trypanosoma cruzi Y […] transfected in monkey LLC-MK2 cells assessed as inhibition of […] viability measured after 24 hrs by Neubauer chamber based analysis. The data set is classed as functional, organism-based. The conditions noted are these: LLC-MK2, 24 h.

Data set [3] in a line: Selectivity index, ratio of IC50 for cytotoxicity against monkey LLC-MK2 cells to IC50 for antitrypanosomal activity against Trypanosoma cruzi Y […] transfected in monkey LLC-MK2 cells. The data set is classed as toxicity, cell-based. Conditions: read-out: Ratio IC50.
In data set [4] the test system is Trypanosoma cruzi. Briefly: Antitrypanosomal activity against Trypanosoma cruzi Y intracellular amastigote transfected in monkey LLC-MK2 cells assessed as inhibition of intracellular amastigote viability measured after 24 hrs by Neubauer chamber based analysis. It is filed as functional, organism-based. Conditions: LLC-MK2, 24 h.
In data set [5] the test system is Trypanosoma cruzi. The data set is described as follows: Antitrypanosomal activity against Trypanosoma cruzi Y […] transfected in African green monkey Vero cells assessed as inhibition of […] viability measured after 48 hrs by DAPI staining based fluorescence microscopic assay. The data set is classed as functional, organism-based.

The test system of data set [6] is Trypanosoma cruzi. The data set is described as follows: Antitrypanosomal activity against Trypanosoma cruzi Sylvio X-10 intracellular amastigotes transfected in African green monkey Vero cells assessed as inhibition of intracellular amastigotes viability measured after 72 hrs by giemsa-staining based analysis. The data set is classed as functional, organism-based. Conditions: Sylvio X-10, Vero.

A short description of data set [7]: Selectivity index, ratio of IC50 for cytotoxicity against African green monkey Vero cells to IC50 for antitrypanosomal activity against Trypanosoma cruzi X-10 intracellular amastigotes transfected in African green monkey Vero cells. It is filed as toxicity, cell-based. Conditions: read-out: Ratio IC50.
Data set [8] deals with Trypanosoma cruzi. The data set is described as follows: Antitrypanosomal activity against Trypanosoma cruzi Tulahuen 2 intracellular epimastigotes assessed as viability of […] measured after 5 days by absorbance based analysis. The conditions noted are these: Tulahuen 2, 120 h. It is filed as functional, organism-based.
Data set [9] is described as follows: Selectivity index, ratio of IC50 for cytotoxicity against mouse J774.1 cells to IC50 for antitrypanosomal activity against Trypanosoma cruzi Tulahuen 2 […]. It is filed as toxicity, cell-based. Conditions: read-out: Ratio IC50.
The subject of data set [10] is Trypanosoma cruzi. Briefly: Antitrypanosomal activity against Trypanosoma cruzi […] assessed as inhibition of […] viability. The data set is classed as functional, organism-based.
Data set [11] has as its system Trypanosoma cruzi. The data set is described as follows: Antitrypanosomal activity against Trypanosoma cruzi Y intracellular amastigotes assessed as inhibition of intracellular amastigotes viability at 10 uM measured after 72 hrs relative to control. The data set is classed as functional.
Data set [12] in a line: Selectivity index, ratio of IC50 for cytotoxicity against African green monkey Vero cells to IC50 for antitrypanosomal activity against Trypanosoma cruzi Dm28c intracellular amastigotes transfected in African green monkey Vero cells. It is filed as toxicity, cell-based. Conditions: read-out: Ratio IC50.
In data set [13] the test system is Trypanosoma cruzi. Briefly: Antitrypanosomal activity against Trypanosoma cruzi Dm28c […] transfected in African green monkey Vero cells assessed as inhibition of […] viability measured after 24 hrs by MTT assay. The data set is classed as functional, organism-based. (Tetrazolium assays rely on reduction of a dye to a coloured formazan, in cell work by metabolically active cells.)

Data set [14] deals with Trypanosoma cruzi. The data set is described as follows: Antitrypanosomal activity against Trypanosoma cruzi Dm28c intracellular amastigotes transfected in African green monkey Vero cells assessed as inhibition of intracellular amastigotes viability measured after 24 hrs by MTT assay. The data set is classed as functional, organism-based.
The nature of data set [15]: Selectivity index, ratio of IC50 for cytotoxicity against African green monkey Vero cells to IC50 for antitrypanosomal activity against Trypanosoma cruzi Dm28c […] transfected in African green monkey Vero cells. It is filed as toxicity, cell-based. The conditions noted are these: read-out: Ratio IC50.
The test system of data set [16] is Trypanosoma cruzi. Briefly: Antitrypanosomal activity against Trypanosoma cruzi Tulahuen CL2 intracellular amastigotes transfected in human MRC5 cells assessed as inhibition of intracellular amastigotes viability using […] substrate measured after 7 days by chlorophenol red […] staining based analysis. Conditions: Tulahuen CL2, MRC5, 168 h. The data set is classed as functional, organism-based.

Each structure is given as a SMILES string. Where only a bound is given, the exact number is not on record here.

What is called IC50 is the concentration needed to halve the response being measured. For `N/C(S)=N/N=C/c1ccc([N+](=O)[O-])cc1`, the selectivity ratio in [1] stood at 11.6; in data set [3], 26.2. The concentration for half-maximal inhibition (IC50) was 1.43 µM in the data set with Trypanosoma cruzi [2] and 11.8 µM in the data set with Trypanosoma cruzi [4].

A word on the EC50: it is the concentration needed to bring the measured effect to its halfway point. As for `O=C(OCCCCCCCCCCCC[P+](c1ccccc1)(c1ccccc1)c1ccccc1)c1cc(O)c(O)c(O)c1`, the EC50 with Trypanosoma cruzi [5] came to 1 µM.

Regarding `O=C(OCCCCCCCCCC[P+](c1ccccc1)(c1ccccc1)c1ccccc1)c1cc(O)c(O)c(O)c1`, in the data set on Trypanosoma cruzi [5], the concentration giving a half-maximal response (EC50) amounted to 1 µM.

As to `C=CCn1c(C(=O)N2CCN(C/C=C/c3ccccc3)CC2)cs\c1=N/N=C/C=C/c1ccco1`, the IC50 in the data set on Trypanosoma cruzi [6] came to 0.7 µM. The selectivity ratio in data set [7] was 433.

As for `O=C(CS/C(C(=O)c1ccc2ccccc2c1)=C1\C=C(c2ccc(O)cc2)SS1)c1ccc2ccccc2c1`, in the data set on Trypanosoma cruzi [8], the half-inhibitory concentration (IC50) stood at 4.9 µM. In [9], the selectivity ratio was found to be 12.8.

Broadly, the inhibition is the percentage by which the read-out fell short of the control. Take `COc1cccc(Nc2c(C#N)cnc3ccc(Cl)cc23)c1`: in the data set with Trypanosoma cruzi [10], the IC50 was < 1 µM. Also, the inhibition at 10 µM in the data set on Trypanosoma cruzi [11] worked out at 65%.

As for `CC1(C(CC(=O)/C=C/c2ccccc2)c2ccccc2)N=C(c2ccccc2)OC1=O` (configuration not stated), the selectivity ratio in data set [12] was determined as 95; in [15], 6.74. The IC50 with Trypanosoma cruzi [13] was 33 µM; in the data set on Trypanosoma cruzi [14] it was 2.34 µM.

Regarding `CCOc1cccc2sc(N(Cc3cccnc3)C(=O)C3CCCCC3)nc12`, in the data set with Trypanosoma cruzi [16], the 50% inhibitory concentration (IC50) came to 0.16 µM.
